Converted amounts (≈) assume the structure as drawn. Like-named read-outs stand apart in the source and are kept apart here.
How the values were obtained:
[1] = biological target: T1, RSV A2 F glycoprotein (membrane-anchored full-length F) in 293 cells (Human respiratory syncytial virus A, UniProt P03420); assay: RSV fusion assay (syncytium formation assay); format: cell-based
T1 construct: A membrane-anchored full-length F was generated essentially according to the method described therein; expressed in transfected cells; host or cells: 293 cells
Method: Method R: RSV Fusion Assay
Selected compounds of the invention were tested for their ability to inhibit the essential fusion processes of the respiratory syncytial virus.
Single-stranded synthetic DNA oligonucleotides encoding the portions of RSV A2 F glycoprotein incorporating optimal codons and without potential poly(A) addition or splice sites were generated synthetically (Mason et al, WO0242326). A membrane-anchored full-length F was generated essentially according to the method described therein and in Morton et al, Virology, 2003, 311, 275.
Fusion activity of the RSV-F constructs was measured in 293 cells essentially according to the method described in Morton et al, Virology, 2003, 311, 275. For example: cells in six well plates at approximately 80% confluency were transfected by adding plasmid DNA (2 μg/well) carrying the constructs of interest in CaPO4 solution for 4 hours. After glycerol shock and wash, the transfected cells were trypsinized and 1.5×10^4 cells/well added to 96-well plates containing half-log serial dilutions of the test compound. Syncytium formation was evaluated by visual inspection and quantified at 48 hours post-transfection by addition of 20 μL of CellTiter 96 One Solution (Promega) followed by incubation for 4 hours at 37° C. The colour reaction was then stopped by addition of 25 μL 10% SDS to each well and absorbance measured at 492 nm. The compound concentration that reduced absorbance relative to untreated control cultures by 50% (EC50) was calculated using an Excel curve fitting program.

RSV A2 [2] = assay: RSV antiviral cytopathic effect (CPE) assay, MTT readout; format: cell-based; settings: human respiratory syncytial virus, HEp-2, 120 h
Method: Method Q: RSV Antiviral Assay Protocol
Compounds of the invention were tested for their antiviral activity against respiratory syncytial virus. Cytopathic effect (CPE) assays were performed essentially as described in the literature (see for example Watanabe et al, 1. Virological Methods, 1994, 48, 257). Serial dilutions of the test compounds were made in assay medium. HEp2 cells (1.0×10^4 cells/well) were infected with RSV at a low multiplicity of infection (e.g. RSV A2 at an moi of 0.01) and 100 μL added to cultures assessing antiviral activity and cells without virus added to those assessing compound cytotoxicity. Assays were incubated for approximately 5 days at 37° C. in a 5% CO2 atmosphere. The extent of CPE was determined via metabolism of the vital dye 3-(4,5-dimethylthiaxol-2-yl)-2,5-diphenyltetrazolium bromide (MTT). A 3 mg/ml stock of MTT was made in assay medium and 100 μL added to each well, taking the final MTT concentration to […]. After 2 hours incubation at 37° C., the media-MTT solution was removed and 200 μL of isopropanol was added to dissolve the vital dye crystals. Plates were shaken and the absorbance read at 540 nm. The compound concentrations that inhibited CPE by 50% (EC50) and developed cytotoxicity (CC50) were calculated using an Excel curve fitting program.

RSV A2 [3] = assay: RSV cotton rat model; format: in vivo; settings: oral 100 mg/kg/day, lung RSV titres by plaque assay four days after inoculation
Method: Method S: RSV Cotton Rat Model
The cotton rat model was performed essentially as described in the literature (Wyde et al, Antiviral Res. 2003, 60, 221). Briefly, cotton rats weighing 50-100 g were lightly anesthetized with isoflurane and dosed orally with 100 mg/kg/day of compound or vehicle control. Viral infection followed 2 hours post-treatment in similarly anesthetized rats by intranasal instillation with approximately 1000 TCID50 of RSV A2 per animal. Four days after virus inoculation, each cotton rat was sacrificed and their lungs removed and RSV titres determined by plaque assay.

RSV A2 [4] = assay: RSV Balb/c mouse model; format: in vivo; settings: female Balb/c mice, compound orally 6 hours preinfection, lung RSV titres by plaque assay three days after virus inoculation
Method: Method T: RSV Balb/c Mouse Model
The mouse model was performed essentially as described by Clanci et al (Antimicrobial Agents and Chemotherapy. 2004, 48, 413). Briefly, eight week old female Balb/c mice were weighed, anesthetized intraperitoneally with Avertin™ and compound or vehicle administered orally 6 hours preinfection. Mice were inoculated intranasally with approximately 10000 TCID50 RSV A2 per animal. Three days after virus inoculation, each mouse was sacrificed and their lungs removed and RSV titres determined by plaque assay.

[5] = RSV A2 in HEp2 cells, CPE assay, MTT, approx. 5 days, read-out: Activity Range (RSV A2 antiviral EC50), compounds of Table 2
[6] = RSV A2 in HEp2 cells, CPE assay, MTT, approx. 5 days, read-out: Activity Range (RSV A2 antiviral EC50), compounds of Table 3

T1 sequence (P03420 26-109): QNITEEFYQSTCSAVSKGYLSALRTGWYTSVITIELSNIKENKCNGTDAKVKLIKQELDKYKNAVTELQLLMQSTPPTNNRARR
T1 sequence (P03420 137-574): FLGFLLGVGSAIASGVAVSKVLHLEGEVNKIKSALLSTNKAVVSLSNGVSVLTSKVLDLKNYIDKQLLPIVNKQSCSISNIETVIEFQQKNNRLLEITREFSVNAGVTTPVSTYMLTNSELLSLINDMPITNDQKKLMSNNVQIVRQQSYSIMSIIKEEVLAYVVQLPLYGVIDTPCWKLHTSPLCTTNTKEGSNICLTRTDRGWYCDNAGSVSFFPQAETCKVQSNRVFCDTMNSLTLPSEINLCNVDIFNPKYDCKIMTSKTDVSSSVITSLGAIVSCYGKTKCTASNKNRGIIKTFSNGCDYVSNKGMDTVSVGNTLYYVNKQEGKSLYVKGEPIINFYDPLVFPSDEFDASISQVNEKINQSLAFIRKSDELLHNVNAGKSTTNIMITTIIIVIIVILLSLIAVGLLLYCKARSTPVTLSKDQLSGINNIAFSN

Row | SMILES | EC50 (RSV A2 [2]; [6]) [µg/mL] | also measured
1 | O=C(c1ccc(F)cc1)N1CCN2C(=O)c3ccccc3C12c1ccc(Cl)cc1 (stereo not drawn) [Compound 12] | – | EC50 [1]: 3.69 to 5.53 µM; EC50 (RSV A2 [2]; read-out: Activity Range (RSV A2 antiviral EC50), compounds of Table 2): 0.1 to 0.25 µg/mL (≈ 0.246 to 0.614 µM)
2 | CCC(=O)N1CCN2C(=O)c3ccccc3C12c1ccc(Cl)cc1 (stereo not drawn) [Compound 16] | – | EC50 [1]: 2.2 to 4.4 µM
3 | COc1ccc(CC(=O)N2CCN3C(=O)c4ccccc4C23c2ccc(C)cc2)cc1 (stereo not drawn) [Compound 66] | – | EC50 [1]: 1.82 to 3.64 µM; EC50 (RSV A2 [2]; [5]): 0.1 to 0.25 µg/mL (≈ 0.242 to 0.606 µM)
4 | O=C(c1ccc(F)nc1)N1CCN2C(=O)c3ccccc3C12c1ccc(Cl)cc1 (stereo not drawn) [Compound 306] | – | EC50 (RSV A2 [2]; [5]): < 0.1 µg/mL; % Reduction of virus Control (RSV A2 [3]): 72%
5 | O=C(c1ccc(F)cc1)N1CCN2C(=O)c3ccncc3C12c1ccc(Cl)cc1 (stereo not drawn) [Compound 336] | 0.1 to 0.25 (≈ 0.245 to 0.613 µM) | EC50 [1]: < 1.84 µM; % Reduction of virus Control (RSV A2 [4]): 80%; % Reduction of virus Control (RSV A2 [3]): 96%
6 | O=C(c1ccc(F)cc1)N1CCN2C(=O)c3cc[n+]([O-])cc3C12c1ccc(Cl)cc1 (stereo not drawn) [Compound 352] | 0.1 to 0.25 (≈ 0.236 to 0.59 µM) | % Reduction of virus Control (RSV A2 [3]): 68%
7 | Cc1csc(C(=O)N2CCN3C(=O)c4ccncc4C32c2ccc(Cl)cc2)c1Cl (stereo not drawn) [Compound 450] | 0.1 to 0.25 (≈ 0.225 to 0.563 µM) | –
8 | O=C(c1cccc(Cl)n1)N1CCN2C(=O)c3ccncc3C12c1ccc(Cl)cc1 (stereo not drawn) [Compound 453] | < 0.1 | –
9 | CSc1ncc(Cl)c(C(=O)N2CCN3C(=O)c4ccncc4C32c2ccc(Cl)cc2)n1 (stereo not drawn) [Compound 454] | 0.1 to 0.25 (≈ 0.212 to 0.529 µM) | –
10 | O=C(c1ccccn1)N1CCN2C(=O)c3ccncc3C12c1ccc(Cl)cc1 (stereo not drawn) [Compound 455] | 0.25 to 1 (≈ 0.64 to 2.56 µM) | –
11 | O=C(c1csnn1)N1CCN2C(=O)c3ccncc3C12c1ccc(Cl)cc1 (stereo not drawn) [Compound 456] | < 0.1 | –
12 | O=C(c1csc(-c2ccncc2)n1)N1CCN2C(=O)c3ccncc3C12c1ccc(Cl)cc1 (stereo not drawn) [Compound 457] | 0.25 to 1 (≈ 0.527 to 2.11 µM) | –
13 | Cc1nc(-c2cnccn2)sc1C(=O)N1CCN2C(=O)c3ccncc3C21c1ccc(Cl)cc1 (stereo not drawn) [Compound 458] | 0.1 to 0.25 (≈ 0.205 to 0.511 µM) | –
14 | O=C1c2ccncc2C2(c3ccc(Cl)cc3)N1CCN2C(=O)c1nsc(Cl)c1Cl (stereo not drawn) [Compound 461] | < 0.1 | –
15 | COc1ccc(-c2ocnc2C(=O)N2CCN3C(=O)c4ccncc4C32c2ccc(Cl)cc2)cc1 (stereo not drawn) [Compound 462] | < 0.1 | –
16 | O=C1c2ccncc2C2(c3ccc(Cl)cc3)N1CCN2C(=O)c1ncoc1-c1ccccc1 (stereo not drawn) [Compound 463] | < 0.1 | –
17 | CC(C)c1nnsc1C(=O)N1CCN2C(=O)c3ccncc3C21c1ccc(Cl)cc1 (stereo not drawn) [Compound 464] | 0.25 to 1 (≈ 0.568 to 2.27 µM) | –
18 | COc1ccc(-c2cc(C(=O)N3CCN4C(=O)c5ccncc5C34c3ccc(Cl)cc3)on2)cc1 (stereo not drawn) [Compound 465] | 0.25 to 1 (≈ 0.513 to 2.05 µM) | –
19 | Cn1cc(C(=O)N2CCN3C(=O)c4ccncc4C32c2ccc(Cl)cc2)c(C(F)(F)F)n1 (stereo not drawn) [Compound 467] | < 0.1 | –
20 | Cc1nc(-c2ccccc2)sc1C(=O)N1CCN2C(=O)c3ccncc3C21c1ccc(Cl)cc1 (stereo not drawn) [Compound 468] | 0.25 to 1 (≈ 0.513 to 2.05 µM) | –
21 | CC(C)c1sc(Cl)nc1C(=O)N1CCN2C(=O)c3ccncc3C21c1ccc(Cl)cc1 (stereo not drawn) [Compound 474] | 0.1 to 0.25 (≈ 0.211 to 0.528 µM) | –
22 | O=C(c1ccc(F)nc1)N1CCN2C(=O)c3cc[n+]([O-])cc3C12c1ccc(Cl)cc1 (stereo not drawn) [Compound 480] | < 0.1 | –
23 | O=C(c1cncnc1)N1CCN2C(=O)c3ccncc3C12c1ccc(Cl)cc1 (stereo not drawn) [Compound 481] | 0.25 to 1 (≈ 0.638 to 2.55 µM) | –
24 | O=C(c1csc(-c2ccc[n+]([O-])c2)n1)N1CCN2C(=O)c3cc[n+]([O-])cc3C12c1ccc(Cl)cc1 (stereo not drawn) [Compound 482] | < 0.1 | –
25 | O=C(c1cscn1)N1CCN2C(=O)c3ccncc3C12c1ccc(Cl)cc1 (stereo not drawn) [Compound 483] | < 0.1 | –
26 | Cc1nonc1C(=O)N1CCN2C(=O)c3ccncc3C21c1ccc(Cl)cc1 (stereo not drawn) [Compound 484] | < 0.1 | –

— patent US8598193B2, “Polycyclic agents for the treatment of respiratory syncytial virus infections” (Biota Scientific Management Pty Ltd., priority 2003, dated 2013)
